This is an account of results in patent US20090105283A1, “3-HYDROQUINAZOLIN-4-ONE DERIVATIVES FOR USE AS STEAROYL CoA DESATURASE INHIBITORS” (priority 2007, published 2009).

Values joined by “and” are separate entries in the source; they are usually repeats but may differ in a detail not shown here. Identical values can stand only once.

The term IC50 denotes the concentration that inhibits the measured activity by half. High values mean weaker potency, low ones greater potency.

The target of this assay is T1, stearoyl-CoA desaturase (SCD) (Rattus norvegicus, UniProt P07308).
T1 construct: The microsomes were quickly thawed and added to assay buffer so that a concentration of 0.4 mg/ml was achieved; from tissue
T1 sequence (P07308 1-358): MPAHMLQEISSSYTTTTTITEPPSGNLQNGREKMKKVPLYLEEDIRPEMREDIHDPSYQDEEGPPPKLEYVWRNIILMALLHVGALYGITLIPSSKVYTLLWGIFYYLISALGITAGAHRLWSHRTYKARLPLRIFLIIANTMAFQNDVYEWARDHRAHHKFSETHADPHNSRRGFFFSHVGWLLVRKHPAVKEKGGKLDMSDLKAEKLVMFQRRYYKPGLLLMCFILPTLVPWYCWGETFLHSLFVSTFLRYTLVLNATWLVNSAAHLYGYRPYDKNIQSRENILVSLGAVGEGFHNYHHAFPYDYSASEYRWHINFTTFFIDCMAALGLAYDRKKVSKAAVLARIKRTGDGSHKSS
The experiment in a line: SCD assay with rat liver microsomes ([3H]stearoyl CoA, adapted from Talamo and Bloch). The class given is biochemical. Particulars: Table 1; rat liver microsomes 0.2 mg/ml assay final, [3H]stearoyl CoA substrate, 30 min preincubation, 45 min reaction, room temperature. The source says:
Male Spraque Dawley Rats were placed on regimented fasting protocol for one week to stimulate SCD enzymatic activity. 48-hour periods were alternated between feeding and fasting to induce and down-regulate SCD activity with SCD activity being induced via carbohydrate rich diet prior to liver perfusion and collection.
The rats were anesthetized with Isoflurane inhalation anesthetic, the liver perfused with cold phosphate buffered saline (PBS), weighed, and chilled in cold homogenization buffer (250 mM sucrose, 10 mM Tris, 1 mM EDTA, pH 7.6.
The livers were finely minced and placed in homogenization tube. 40 mL of homogenization buffer was added to the homogenization tube and the liver homogenized and centrifuged in a pre-chilled […] for 10 min at 4° C.
Following centrifugation, the supernatant was collected and the pellet removed and discarded. The supernatant was centrifuge at 10,000 G for 35 minutes. Following centrifugation, the supernatant was collect and the pellet discarded. The supernatant was then centrifuged in a pre-chilled 45-Ti rotor at 130,000 G (41,000 RPM) for 90 minutes at 4° C.
The supernatant was then aspirated off and the collected microsomal pellet washed in 25 mL of Glycerol PBS (1×PBS 7.4, 20% Glycerol) and resuspended in 4-5 volumes of Glycerol PBS.
The protein concentration of the microsomal preparation was determined by BCA assay (Pierce) and the microsomes were aliquoted and stored at −80° C.
Biobeads were ground to a smaller size in a mortar and pestle and resuspended in 3.6% TCA. The beads were then filtered through […] mesh.
SCD was determined in the desaturase assay buffer. This assay buffer contained 0.1 M Tris buffer, pH 7.2, 2 mM NADH, 4.8 mM ATP, 0.5 mM CoA, 4.8 mM MgCl2, and 0.1% BSA.
1 μl of each compound of Formula I was added to an assay plate by a low volume (0.5-10 μL) multichannel pipette. A DMSO control was also prepared. The microsomes were quickly thawed and added to assay buffer so that a concentration of 0.4 mg/ml was achieved (0.2 mg/ml assay final). 50 μl of the microsome suspension in assay buffer was then added into each well in the compound assay plate, the plate was covered, and the microsomes preincubated with the compounds for 30 minutes on the orbital shaker, 50-75 rpm, at room temperature.
The reaction mixtures were then incubated for 45 minutes on the orbital shaker at 50-75 rpm at room temperature.
The reaction was terminated by the addition of 10 μl of 21% trichloroacetic acid (TCA) to the reaction mixture followed incubation on the orbital shaker for 30 minutes at 50-75 rpm at room temperature followed by centrifugation for 5 minutes at 3700 rpm.
50 μl of a 6% Bio-Bead suspension in H2O was added to the reaction mixture and the assay plate was sealed. The Bio-Bead mixture was incubated on the orbital shaker for 1 hour, 100-150 rpm at room temperature, and then the mixture was centrifuged at 2000 g for 5 minutes to pellet the Bio-Beads.
25 μl of the supernatant was harvested from each well and transferred to a detection plate. 100 μl of OptiPhase SuperMix scinitillation cocktail (containing sufficient NaOH to neutralize the TCA) was added and the solutions mixed by vigorous shaking (300-400 rpm) for 5 minutes at room temperature.
(Liver microsomes are a subcellular fraction often used to study metabolism.)
`O=C(Nc1ccc2ncn(Cc3ccc(Cl)c(Cl)c3)c(=O)c2c1)OCc1ccccn1` [LXXXIX, N-{3-[(3,4-dichlorophenyl)methyl]-4-oxo(3-hydroquinazolin-6-yl)}(2-pyridylmethoxy)carboxamide] had an IC50 of 780 nM.

`O=C(Nc1ccc2ncn(Cc3ccc(Cl)c(Cl)c3)c(=O)c2c1)OCC1CC1` [LXXXV, N-{3-[(3,4-dichlorophenyl)methyl]-4-oxo(3-hydroquinazolin-6-yl)}(cyclopropylmethoxy)carboxamide] displayed an IC50 of 2970 nM.

In turn, `CN(C)CC(=O)OCC(=O)Nc1ccc2ncn(Cc3ccc(Cl)c(Cl)c3)c(=O)c2c1` [LXXXVI, (N-{3-[(3,4-dichlorophenyl)methyl]-4-oxo-3-hydroquinazolin-6-yl}carbamoyl)methyl 2-(dimethylamino)acetate] showed a half-inhibitory concentration (IC50) of 360 nM. This IC50 lies about 8.2-fold lower than the previous one.

For `O=C(CO)Nc1ccc2c(=O)n(Cc3ccc(F)c(Cl)c3)cnc2c1` [LXXXVII, N-{3-[(3-chloro-4-fluorophenyl)methyl]-4-oxo(3-hydroquinazolin-7-yl)}-2-hydroxyacetamide], the IC50 is 2320 nM and 2230 nM.

`O=C(NCc1ccccc1)Nc1ccc2ncn(Cc3ccc(Cl)c(Cl)c3)c(=O)c2c1` [V, N-{3-[(3,4-dichlorophenyl)methyl]-4-oxo(3-hydroquinazolin-6-yl)}[benzylamino]carboxamide] showed an IC50 of 3180 nM.

Turning to `Cc1nc2ccc(NC(=O)OCc3ccccc3)cc2c(=O)n1Cc1ccc(Cl)c(Cl)c1` [VI, N-{3-[(3,4-dichlorophenyl)methyl]-2-methyl-4-oxo(3-hydroquinazolin-6-yl)}(phenylmethoxy)carboxamide], half-maximal inhibition (IC50) required 20000 nM.

`CC(C)COC(=O)Nc1ccc2ncn(Cc3ccc(Cl)c(Cl)c3)c(=O)c2c1` [VII, N-{3-[(3,4-dichlorophenyl)methyl]-4-oxo(3-hydroquinazolin-6-yl)}(2-methylpropoxy)carboxamide] yielded an IC50 of 7900 nM.

`O=C(Nc1ccc2ncn(Cc3ccc(Cl)cc3)c(=O)c2c1)OCc1ccccc1` [VIII, N-{3-[(4-chlorophenyl)methyl]-4-oxo(3-hydroquinazolin-6-yl)}(phenylmethoxy)carboxamide] registered an IC50 of 190 nM.

`C=CCOC(=O)Nc1ccc2ncn(Cc3ccc(Cl)c(Cl)c3)c(=O)c2c1` [X, N-{3-[(3,4-dichlorophenyl)methyl]-4-oxo(3-hydroquinazolin-6-yl)}prop-2-enyloxycarboxamide] displayed an IC50 of 1500 nM.

In turn, `CN(C)CC(=O)OCC(=O)Nc1ccc2c(=O)n(Cc3ccc(Cl)c(Cl)c3)cnc2c1` [XC, (N-{3-[(3,4-dichlorophenyl)methyl]-4-oxo-3-hydroquinazolin-7-yl}carbamoyl)methyl 2-(dimethylamino)acetate] came in with an IC50 of 310 nM. This IC50 lies about 4.8-fold lower than the previous one.

For the compound `CCOC(=O)COC(=O)Nc1ccc2c(=O)n(Cc3ccc(Cl)c(Cl)c3)cnc2c1` [XCI, ethyl 2-(N-{3-[(3,4-dichlorophenyl)methyl]-4-oxo-3-hydroquinazolin-7-yl}carbamoyloxy)acetate], the IC50 came out at 3770 nM.

Regarding `COCCOCCOC(=O)Nc1ccc2ncn(Cc3ccc(Cl)c(Cl)c3)c(=O)c2c1` [XCII, N-{3-[(3,4-dichlorophenyl)methyl]-4-oxo(3-hydroquinazolin-6-yl)}[2-(2-methoxyethoxy)ethoxy]carboxamide], it took 11700 nM to reach half-maximal inhibition (IC50).

Compound `COCCNC(=O)Nc1ccc2ncn(Cc3ccc(Cl)c(Cl)c3)c(=O)c2c1` [XCIII, N-{3-[(3,4-dichlorophenyl)methyl]-4-oxo(3-hydroquinazolin-6-yl)}[(2-methoxyethyl)amino]carboxamide] showed a concentration for half-maximal inhibition (IC50) of 6200 nM.

In turn, `CC(=O)OCC(=O)Nc1ccc2ncn(Cc3cccc(C(F)(F)F)c3)c(=O)c2c1` [XCIV, [N-(4-oxo-3-{[3-(trifluoromethyl)phenyl]methyl}-3-hydroquinazolin-6-yl)carbamoyl]methyl acetate] had a concentration for half-maximal inhibition (IC50) of 1700 nM.

`O=C(CO)Nc1ccc2ncn(Cc3ccc(Cl)c(F)c3)c(=O)c2c1` [XCIX, N-{3-[(4-chloro-3-fluorophenyl)methyl]-4-oxo(3-hydroquinazolin-6-yl)}-2-hydroxyacetamide] had an IC50 of 1160 nM.

Regarding `O=C(CO)Nc1ccc2ncn(Cc3cccc(C(F)(F)F)c3)c(=O)c2c1` [XCV, 2-hydroxy-N-(4-oxo-3-{[3-(trifluoromethyl)phenyl]methyl}(3-hydroquinazolin-6-yl))acetamide], the IC50 was 1380 nM. The IC50 values of the last two compounds are within 1.5-fold of each other.

Take `CC(=O)OCC(=O)Nc1ccc2ncn(Cc3ccc(C(F)(F)F)cc3)c(=O)c2c1` [XCVI, [N-(4-oxo-3-{[4-(trifluoromethyl)phenyl]methyl}-3-hydroquinazolin-6-yl)carbamoyl]methyl acetate]: the IC50 was found to be 2740 nM.

For the compound `O=C(CO)Nc1ccc2ncn(Cc3ccc(C(F)(F)F)cc3)c(=O)c2c1` [XCVII, 2-hydroxy-N-(4-oxo-3-{[4-(trifluoromethyl)phenyl]methyl}(3-hydroquinazolin-6-yl))acetamide], 3160 nM corresponded to half-maximal inhibition (IC50).

As for `CC(=O)OCC(=O)Nc1ccc2ncn(Cc3ccc(Cl)c(F)c3)c(=O)c2c1` [XCVIII, (N-{3-[(4-chloro-3-fluorophenyl)methyl]-4-oxo-3-hydroquinazolin-6-yl}carbamoyl)methyl acetate], half-maximal inhibition (IC50) required 1320 nM. Against the preceding compound, the IC50 is about 2.4-fold lower.

Compound `Cc1ccc(OC(=O)Nc2ccc3ncn(Cc4ccc(Cl)c(Cl)c4)c(=O)c3c2)cc1` [XI, N-{3-[(3,4-dichlorophenyl)methyl]-4-oxo(3-hydroquinazolin-6-yl)}(4-methylphenoxy)carboxamide] displayed an IC50 of 2700 nM.

Regarding `O=C(Nc1ccc2ncn(Cc3ccc(Cl)c(Cl)c3)c(=O)c2c1)Oc1ccc(F)cc1` [XII, N-{3-[(3,4-dichlorophenyl)methyl]-4-oxo(3-hydroquinazolin-6-yl)}(4-fluorophenoxy)carboxamide], the IC50 was 13000 nM.

Take `COC(=O)Nc1ccc2ncn(Cc3ccc(Cl)c(Cl)c3)c(=O)c2c1` [XIII, N-{3-[(3,4-dichlorophenyl)methyl]-4-oxo(3-hydroquinazolin-6-yl)}methoxycarboxamide]: the IC50 came to 4700 nM.

In turn, `C=CCOC(=O)Nc1ccc2ncn(Cc3ccc(Cl)cc3)c(=O)c2c1` [XIV, N-{3-[(4-chlorophenyl)methyl]-4-oxo(3-hydroquinazolin-6-yl)}prop-2-enyloxycarboxamide] gave an IC50 of 25700 nM.

For `CC(=O)NCC(=O)Nc1ccc2ncn(Cc3ccc(Cl)c(Cl)c3)c(=O)c2c1` [XIX, 2-(acetylamino)-N-{3-[(3,4-dichlorophenyl)methyl]-4-oxo(3-hydroquinazolin-6-yl)}acetamide], the IC50 was 11700 nM.

In turn, `O=C(COc1ccccc1)Nc1ccc2ncn(Cc3ccc(F)c(Cl)c3)c(=O)c2c1` [XL, N-{3-[(3-chloro-4-fluorophenyl)methyl]-4-oxo(3-hydroquinazolin-6-yl)}-2-phenoxyacetamide] displayed an IC50 of 9500 nM.

On to `O=C(COc1ccccc1)Nc1ccc2ncn(Cc3ccc4ccsc4c3)c(=O)c2c1` [XLI, N-[3-(benzo[b]thiophen-6-ylmethyl)-4-oxo(3-hydroquinazolin-6-yl)]-2-phenoxyacetamide], for which the IC50 amounted to 8000 nM.

For `O=C(CCC(=O)c1ccccc1)Nc1ccc2ncn(Cc3ccc(Cl)c(Cl)c3)c(=O)c2c1` [XLII, N-{3-[(3,4-dichlorophenyl)methyl]-4-oxo(3-hydroquinazolin-6-yl)}-4-oxo-4-phenylbutanamide], the IC50 was 2170 nM.

As to `O=C(COc1cccc(F)c1)Nc1ccc2ncn(Cc3ccc(Cl)cc3)c(=O)c2c1` [XLIII, N-{3-[(4-chlorophenyl)methyl]-4-oxo(3-hydroquinazolin-6-yl)}-2-(3-fluorophenoxy)acetamide], half-maximal inhibition (IC50) was put at 6400 nM. This IC50 is about 2.9-fold higher than that of the compound before.
